Reference: patent US12091393B2, “Small molecule vaccine adjuvant for enhancing or prolonging immune response” (The Regents of the University of California, priority 2018, dated 2024)
Like-named read-outs stand apart in the source and are kept apart here.

Tests used:
[1] = system: NF-κB; assay: Measurement of NF-κB activation using THP1-Blue NF-κB cells (SEAP); type: cell-based; details: for activity at 5 µM: 20 h, two point normalized, compound 1 as 200%; for NF-κB activity (SAR discussion, in words): evaluated in both the presence and absence of LPS; for NF-κB activity when tested alone (in words): compound alone, without LPS
[2] = system: NF-κB; assay: cell-based NF-κB FRET assay; details: compound + LPS; two point normalized, compound 1 as 200%, LPS (10 ng/mL) as 100%
Text: Site A was assigned the 4-substituent of thiazole ring, site B was the thiazole ring itself, site C was the central amide bond in the structure, site D was the benzene ring bearing 1,4-carboxyl and sulfamoyl group, site E was the sulfonamide functional group and site F was the amide substituent on the sulfamoyl group.

[3] = system: THP-1 cells; assay: Cell viability assay (MTT); type: cell-based; details: compound 5 μM alone, 18 h, normalized to DMSO as 100%
Procedure: THP-1 cells were plated in 96-well plates (10^5 cells/well) in 100 μL RPMI supplemented with 10% FBS, 100 U/mL penicillin and 100 μg/ml streptomycin. Compounds were dissolved in DMSO at 1 mM stock solution and were further diluted to 10 μM in the assay medium. 100 μL of this solution was added to the cells to obtain a final compound concentration of 5 μM ([…]). After 18 h incubation, a solution of MTT in assay media (0.5 mg/mL) was added to each well and further incubated for 4 to 6 h, followed by addition of cell lysis buffer (15% w/v SDS and 0.12% v/v 12N HCl aqueous solution), incubated overnight, and then absorbance measured at 570 nm using 650 nm as reference using Tecan Infinite M200 plate reader.

[4] = compound 5 μM + LPS, LPS (10 ng/mL) as 100%, read-out: NF-κB SEAP Compound + LPS % Activation
[5] = compound 5 μM alone, LPS or DMSO as 100%, read-out: NF-κB SEAP Compound alone % Activation

SMILES	activity at 5 µM [1, 4] [%]	activity at 5 µM [1, 5] [%]	NF-κB activity (SAR discussion, in words) [1]	NF-κB FRET Compound + LPS % Activation [2] [%]	MTT Compound alone % Viability [3] [%]	NF-κB activity when tested alone (in words) [1]
Cc1ccc(-c2csc(NC(=O)c3ccc(S(=O)(=O)N4CCCCC4)cc3)n2)c(C)c1 [Compound 12m, N-(4-(2,4-dimethylphenyl)thiazol-2-yl)-4-(piperidin-1-ylsulfonyl)benzamide]	86.7	98.5	inactive	161.33	101.40	
Cc1csc(NC(=O)c2ccc(S(=O)(=O)N3CCCCC3)cc2)n1 [Compound 12g, N-(4-methylthiazol-2-yl)-4-(piperidin-1-ylsulfonyl)benzamide]	101	99.9	None of these molecules had any NF-κB activity	110.48	114.29	
Cc1ccc(C)c(-c2nc(NC(=O)c3ccc(S(=O)(=O)N4CCCCC4)cc3)sc2-c2ccco2)c1 [Compound 18j, N-(4-(2,5-dimethylphenyl)-5-(furan-2-yl)thiazol-2-yl)-4-(piperidin-1-ylsulfonyl)benzamide]	102	100	completely inactive	160.49	107.56	
Cc1ccc(C)c(-c2csc(NC(=O)c3ccc(S(=O)(=O)N4CCCCC4)nc3)n2)c1 [Compound 46b, N-(4-(2,5-dimethylphenyl)thiazol-2-yl)-6-(piperidin-1-ylsulfonyl)nicotinamide]	115	100	none of these modifications at site D or E were tolerated	146.35	88.57	
CCC#Cc1sc(NC(=O)c2ccc(S(=O)(=O)N3CCCCC3)cc2)nc1-c1cc(C)ccc1C [Compound 18p, N-(5-(but-1-yn-1-yl)-4-(2,5-dimethylphenyl)thiazol-2-yl)-4-(piperidin-1-ylsulfonyl)benzamide]	192	291		210.21	120.17	very potent
Cc1ccccc1-c1csc(NC(=O)c2ccc(S(=O)(=O)N3CCCCC3)cc2)n1 [Compound 12b, 4-(piperidin-1-ylsulfonyl)-N-(4-(o-tolyl)thiazol-2-yl)benzamide]	105	99.2	inactive	100.13	95.69	
CCCCc1sc(NC(=O)c2ccc(S(=O)(=O)N3CCCCC3)cc2)nc1-c1cc(C)ccc1C [Compound 18s, N-(5-butyl-4-(2,5-dimethylphenyl)thiazol-2-yl)-4-(piperidin-1-ylsulfonyl)benzamide]	124	116	retained activity	176.96	141.98	
Cc1ccc(C)c(-c2c[nH]c(NC(=O)c3ccc(S(=O)(=O)N4CCCCC4)cc3)n2)c1 [Compound 18a, N-(4-(2,5-dimethylphenyl)-1H-imidazol-2-yl)-4-(piperidin-1-ylsulfonyl)benzamide]	97.3	99.3	none of these molecules that replaced the thiazole functionality were active	142.21	50.69	
Cc1ccc(C)c(-c2nc(NC(=O)c3ccc(S(=O)(=O)N4CCCCC4)cc3)sc2Br)c1 [Compound 18n, N-(5-bromo-4-(2,5-dimethylphenyl)thiazol-2-yl)-4-(piperidin-1-ylsulfonyl)benzamide]	198	133		154.54	84.46	
CCCC#Cc1sc(NC(=O)c2ccc(S(=O)(=O)N3CCC(CCC)CC3)cc2)nc1-c1cc(C)ccc1C [Compound 61, N-(4-(2,5-dimethylphenyl)-5-(pent-1-yn-1-yl)thiazol-2-yl)-4-((4-propylpiperidin-1-yl)sulfonyl)benzamide]	189	119	very potent and showed better potency than compound 1	207.19	102.98	
Cc1ccc(C)c(-c2csc(NC(=O)c3ccc(C(=O)N4CCCCC4)cc3)n2)c1 [Compound 49c, N-(4-(2,5-dimethylphenyl)thiazol-2-yl)-4-(piperidine-1-carbonyl)benzamide]	109	99.3	none of these modifications at site D or E were tolerated	134.09	87.59	
Cc1cccc(-c2csc(NC(=O)c3ccc(S(=O)(=O)N4CCCCC4)cc3)n2)c1 [Compound 12c, 4-(piperidin-1-ylsulfonyl)-N-(4-(m-tolyl)thiazol-2-yl)benzamide]	98.6	99.5	inactive	78.98	96.06	
C#Cc1ccc(C)c(-c2csc(NC(=O)c3ccc(S(=O)(=O)N4CCCCC4)cc3)n2)c1 [Compound 12t, N-(4-(5-ethynyl-2-methylphenyl)thiazol-2-yl)-4-(piperidin-1-ylsulfonyl)benzamide]	90	101	inactive	88.20	82.42	
Cc1ccc2c(c1)-c1nc(NC(=O)c3ccc(S(=O)(=O)N4CCCCC4)cc3)sc1CC2 [Compound 12s, N-(8-methyl-4,5-dihydronaphtho[1,2-d]thiazol-2-yl)-4-(piperidin-1-ylsulfonyl)benzamide]	141	128	weakly active	159.62	102.16	
Cc1ccc(Br)cc1-c1csc(NC(=O)c2ccc(S(=O)(=O)N3CCCCC3)cc2)n1 [Compound 12e, N-(4-(5-bromo-2-methylphenyl)thiazol-2-yl)-4-(piperidin-1-ylsulfonyl)benzamide]	213	207	active	189.97	91.50	
Cc1ccc(C)c(-c2csc(C(=O)Nc3ccc(S(=O)(=O)N4CCCCC4)cc3)n2)c1 [Compound 34b, 4-(2,5-dimethylphenyl)-N-(4-(piperidin-1-ylsulfonyl)phenyl)thiazole-2-carboxamide]	104	98.8	weak activity	134.57	91.08	
CCCC#Cc1sc(NC(=O)c2ccc(S(=O)(=O)N3CCCCC3)cc2)nc1-c1cc(C)ccc1C [Compound 18q, N-(4-(2,5-dimethylphenyl)-5-(pent-1-yn-1-yl)thiazol-2-yl)-4-(piperidin-1-ylsulfonyl)benzamide]	242	393	most potent	215.78	105.84	very potent
CCN(c1ccccc1)S(=O)(=O)c1ccc(C(=O)Nc2nc(-c3cc(C)ccc3C)cs2)cc1 [Compound 58d, N-(4-(2,5-dimethylphenyl)thiazol-2-yl)-4-(N-ethyl-N-phenylsulfamoyl)benzamide]	89.8	105	inactive	74.73	81.42	
Cc1ccc(C)c(-c2nc(NC(=O)c3ccc(S(=O)(=O)N4CCCCC4)cc3)sc2C)c1 [Compound 18m, N-(4-(2,5-dimethylphenyl)-5-methylthiazol-2-yl)-4-(piperidin-1-ylsulfonyl)benzamide]	179	159		186.92	96.90	
Cc1ccc(C)c(-c2ccc(NC(=O)c3ccc(S(=O)(=O)N4CCCCC4)cc3)cn2)c1 [Compound 18d, N-(6-(2,5-dimethylphenyl)pyridin-3-yl)-4-(piperidin-1-ylsulfonyl)benzamide]	97.2	98.2	none of these molecules that replaced the thiazole functionality were active	58.39	95.35	
